# Data published in PMC10686834, “Targeting myeloid chemotaxis to reverse prostate cancer therapy resistance” (Nature, 2023).
# pIC50: −log10 of the molar value. Where two headings read alike, the source gives them in different places.
# Experiments:
# [1] = system: patients with bronchiectasis; conditions: cited from earlier work
# [2] = system: CYP2C8; design: method as in AZD5069 Investigator Brochure (IB); conditions: ref AZD5069 Investigator Brochure (IB); cited from earlier work
# [3] = system: blood neutrophils; assay: Peripheral blood neutrophil counts and NLR on treatment; assay type: in vivo, human
# Protocol: Secondary endpoints were:(i) the rate of objective response, with objective response defined as confirmed soft tissue objective response by Response Evaluation Criteria in Solid Tumors v.1.1 in those with measurable disease, and/or PSA decline ≥50% confirmed 4 weeks or later, and/or CTC count conversion from ≥5 per 7.5 ml of blood at baseline to <5 per 7.5 ml of blood at nadir; (ii) pharmacokinetic parameters, including maximum concentration, area under the concentration–time curve; and (iii) pharmacodynamic changes including identifying patients whose blood NLR, neutrophil, and intratumour myeloid cell density decrease. Exploratory endpoints included blood cytokine levels and evaluation of tumour molecular profile on response.
# The association between myeloid cell densities and NLR was evaluated in two cohorts (Supplementary Table 1). Cohort 1 consisted of 48 mCRPC biopsies from patients treated at ICR/RMH, Oncology Institute of Southern Switzerland and Belfast City Hospital between 2012 and 2021. All patients provided informed consent, and enrolled onto institutional protocols approved by the local RECs (REC reference: 04/Q0801/60, 11/LO/2019). The validation cohort consisted of 57 mCRPC biopsies from patients treated at ICR/RMH between 2012 and 2016 under institutional protocols approved by the local REC (REC references: 04/Q0801/60, 2017-01002 CE TI 3237). […]
# [4] = design: method as in AZD5069 Investigator Brochure (IB); conditions: human mass balance study NCT01332903; ref AZD5069 Investigator Brochure (IB); cited from earlier work
# [5] = system: CYP3A4; design: method as in AZD5069 Investigator Brochure (IB); conditions: co-administration with ketoconazole; ref AZD5069 Investigator Brochure (IB); cited from earlier work
# [6] = system: CYP2A6; design: method as in AZD5069 Investigator Brochure (IB); conditions: at concentrations of up to 100 μmol/L; ref AZD5069 Investigator Brochure (IB); cited from earlier work
# [7] = system: P-glycoprotein (P-gp; MDR1) transporter mRNA; design: method as in AZD5069 Investigator Brochure (IB); conditions: human hepatocytes; ref AZD5069 Investigator Brochure (IB); cited from earlier work
# [8] = system: patients with advanced solid tumours or metastatic pancreatic ductal adenocarcinoma; conditions: ref AZD5069 IB (07 July 2019), cited from earlier work
# [9] = design: method as in AZD5069 Investigator Brochure (IB); conditions: ref AZD5069 Investigator Brochure (IB), cited from earlier work
# [10] = design: method as in AZD5069 Investigator Brochure (IB); conditions: ref AZD5069 Investigator Brochure (IB); cited from earlier work
# [11] = system: CYP3A4; design: method as in AZD5069 Investigator Brochure (IB); conditions: at concentrations of up to 100 μmol/L; ref AZD5069 Investigator Brochure (IB); cited from earlier work
# [12] = bronchiectasis study NCT01255592, on AZD5069, ref AZD5069 Investigator Brochure (IB)
# [13] = 109 patients in two oncology studies
structure (smiles),measurement,setting,value
C[C@@H](Oc1cc(NS(=O)(=O)N2CCC2)nc(SCc2cccc(F)c2F)n1)[C@@H](O)CO [AZD5069],mean reduction in blood neutrophils,"[1]; bronchiectasis study NCT01255592, 80 mg BD, ref AZD5069 Investigator Brochure (IB)",approximately 16%
same,reduction in sputum neutrophils compared with placebo,"[1]; bronchiectasis study NCT01255592, after 4 weeks’ treatment, ref AZD5069 Investigator Brochure (IB)",69%
same,patients reporting adverse events (AEs),[1]; [12],23 of 26
same,patients who withdrew because of AEs,[1]; [12],5
same,infections reported,[1]; in vivo,34.6%
same,pIC50,[2],~4.00
same,effect on blood neutrophil counts and NLRs,[3]; 40 mg BD to 320 mg BD,decreased blood neutrophil counts and NLRs in a dose-dependent manner
same,on-target reduction in blood neutrophil counts,[3]; AZD5069 >40 mg BD,at least 30%
same,phase II glucose conjugate metabolite in urine,[4],< 5.3 % of dose
same,increased exposure (AUC),[5],2.1 fold
same,increased exposure (Cmax),[5],1.6 fold
same,inhibition of CYP2A6,[6],not an inhibitor
same,induction of P-glycoprotein (P-gp; MDR1) transporter mRNA,[7],concentration dependent induction
same,causally-related AEs that led to treatment discontinuation,[8]; 109 patients in two oncology studies (four patients),3.7%
same,causally-related AEs of CTCAE ≥Grade 3: fatigue,[8]; [13],4.6%
same,causally-related AEs of CTCAE ≥Grade 3: neutropenia,[8]; [13],11.0%
same,causally-related AEs of CTCAE ≥Grade 3: neutrophil count decreased,[8]; [13],4.6%
same,causally-related AEs: decreased appetite,[8]; [13],20.2%
same,causally-related AEs: diarrhoea,[8]; [13],10.1%
same,causally-related AEs: fatigue,[8]; [13],22.9%
same,causally-related AEs: nausea,[8]; [13],11.9%
same,causally-related AEs: neutropenia,[8]; [13],15.6%
same,causally-related AEs: neutrophil count decreased,[8]; [13],11.0%
same,causally-related SAEs,[8]; [13],9.2%
same,fatal AE considered treatment-related,[8]; [13],no fatal AE
same,most common AEs: decreased appetite,[8]; [13],35.8%
same,most common AEs: fatigue,[8]; [13],38.5%
same,most common AEs: nausea,[8]; [13],28.4%
same,patients with adverse events considered related to study treatment,[8]; [13],73.4%
same,neutrophil count decreased,"[8]; Study NCT02499328, 40 mg BD dose (4/64)",6.3%
same,neutrophil count decreased,"[8]; Study NCT02499328, 80 mg BD dose (6/25)",24%
same,tmax,[9]; fasting conditions,~ 2 hours
same,initial half-life,[9]; plasma,4 h
same,terminal half-life,[9]; plasma,11 h
same,apparent volume of distribution,[9],~ 53 L
same,food effect,[9],reduces the peak concentration but total exposure (AUC) is unchanged
same,fraction of the drug renally excreted,[9],Less than 10%
same,total plasma clearance,[9],~ 8 L/h
same,systemic exposure versus dose,[9]; single and repeated BD dosing,proportional to the dose
same,phototoxic potential,[10],low risk for phototoxic potential
same,inhibition of CYP3A4,[11],not an inhibitor
